Experimental data reported in patent publication US6921811B2, “Bioactive coating composition and methods” (BioSurface Engineering Technologies, Inc., priority 1998, dated 2005).

Legend:
C3H10T1/2 cells [1] = assay: C3H10T1/2 cell attachment to a variety of coated substrates; format: cell-based, murine
Method: (§1) The cells were examined after plating using an inverted, phase-contrast microscope. At selected time points up to 4 days after initial seeding, the cells were rinsed three times in saline and fixed in buffered 10% formalin or 35% ethanol. In some cases, the cells were stained in situ with a 0.01 % aqueous solution of crystal violet. The amount of attachment was scored visually or quantitated. To establish the relative number of cells bound, crystal violet stained cells were dissolved in a solution of 70% ethanol containing 0.1% sodium dodecyl sulfate and 0.38 M Tris and the absorbance monitored at 610 nm, using the methods of Scragg and Ferreira (Anal Biochem 198:80-5, 1991) and Grando et al. (Skin Pharmacol 6:135-47, 1993).
The general applicability of silyl-heparin-fibronectin complex was evaluated by applying this coating using the methods of Examples 4 and 5 to a variety of surfaces, including polystyrene, polylactide:polyglycolide, polycaprolactone, polyurethane and stainless steel. […] They did, however, bind moderately well to polylactide:polyglycolide and to polycaprolactone, and very well to stainless steel.

[2] = test system: C3H10T1/2 (murine fibroblasts); assay: Cell attachment, spreading and growth on coated low-attachment polystyrene wells; format: cell-based; settings: C3H10T1/2; coated low-attachment polystyrene wells; 10^4 cells/well; serum-containing medium
Text: (§2) Several cell types were used, including GS-9L cells (rat gliosarcoma), C3H10T1/2 (murine fibroblasts), Jurkat (human T cell), bovine aorta endothelial (BAE) cells and rat lymphocytes. GS-9L and C3H10T1/2 cells were maintained in log phase growth and detached from cultureware using Versene and collected by centrifugation. Jurkat cells grew as single cell suspensions and were collected by centrifugation. Rat lymphocytes were collected from heparinized blood by density gradient isolation over Ficoll-Hypaque® media. The collected cells were rinsed once by low speed centrifugation and suspended in either serum-free Dulbecco's Modified Eagles Medium (DMEM) containing pyruvate or RPMI 1640 containing 10% fetal bovine serum (FBS) supplemented with pyruvate. Aliquots of 10^4 cells in 100 μL were used in subsequent adhesion studies.
as §1
The cells of Example 7 were added to untreated polystyrene wells, wells coated with silyl-heparin as in Example 4, with silyl-heparin-fibronectin as in Example 5, and with only fibronectin by incubation as described in Example 5. […] Cells were seeded at a concentration of 10^4 cells/well in serum-containing medium.
The cells grew to confluency by 4 days. […] No effort was made to grow the cells in a defined- or serum-low medium known to support growth. […]

[3] = test system: thigh muscle of adult rats; assay: Coated Vicryl sutures implanted in muscle, histology; format: in vivo; settings: two weeks; compared to control suture
Text: Vicryl suture material was coated using a solution containing silyl-heparin complex or a solution containing silyl-heparin complex followed by immersion in bFGF as described above. The suture material was then rinsed extensively, air-dried, mounted on 16 gage needles and stored until use, typically overnight. Under anesthesia, the sutures were passed through the thigh muscle of adult rats and secured with knots and surgical clips. After two weeks the animals were euthanized and the sutured area removed, fixed in formalin, and processed by standard histological methods.

[4] = test system: Bovine aorta endothelial cells; assay: Capillary tube formation on coated low attachment wells; format: cell-based; settings: 5×10^3 cells per well; DMEM containing 10% FBS; 4 days; phase contrast microscopy
Method: Low attachment 96 well plates were coated with saline, silyl-heparin complex, silyl-heparin-fibrinogen complex or silyl-heparin-bFGF complex. Bovine aorta endothelial cells (5×10^3 cells) were seeded into each well in DMEM containing 10% FBS. The cells were allowed to grow for 4 days and the cultures examined by phase contrast microscopy.

Jurkat (human T cell) = assay: Cell attachment on coated low-attachment polystyrene wells; format: cell-based; settings: 10^4 cells/well, serum-containing medium
Text: as §2
(§3) The cells were examined after plating using an inverted, phase-contrast microscope. […] The amount of attachment was scored visually or quantitated. To establish the relative number of cells bound, crystal violet stained cells were dissolved in a solution of 70% ethanol containing 0.1% sodium dodecyl sulfate and 0.38 M Tris and the absorbance monitored at 610 nm, using the methods of Scragg and Ferreira (Anal Biochem 198:80-5, 1991) and Grando et al. (Skin Pharmacol 6:135-47, 1993). […]

rat lymphocytes = assay: as above; format: cell-based; settings: 10^4 cells/well, serum-containing medium
Text: as §2, §3

C3H10T1/2 cells [5] = assay: Cross-titration of fibronectin and silyl-heparin needed to support cell attachment; format: cell-based, murine; settings: silyl-heparin titrated from 30 μg/well, fibronectin then applied at 4 μg/well; 24 hours; crystal violet, 610 nm
Method: The optimal amount of fibronectin and silyl-heparin to support attachment of C3H10T1/2 cells was determined by cross-titration, as shown on FIG. 1. […] The fall-off for the silyl-heparin was more gradual. The curve of the relative amount of silyl-heparin on the substrate following serial dilution generally followed the cell attachment curve.
In FIG. 1, fibronectin (Δ—Δ) or silyl-heparin (•—•) were titrated to determine the quantity needed to support attachment of C3H10T1/2 cells. All dilutions were performed in quadruplicate in wells of 96-well plates of low-attachment polystyrene. For titration of fibronectin, silyl-heparin was applied at 30 μg/well in 70% ethanol as in Example 4. After rinsing, fibronectin was applied in doubling dilutions of phosphate buffered saline starting from 4 μg/well. For titration of silyl-heparin, silyl-heparin was applied in doubling dilutions in 70% ethanol starting from silyl-heparin concentrations of 30 μg/well. Fibronectin was then applied in saline at 4 μg/well. Cells were at a concentration of 10^4 cells/well in growth medium. For both experiments, the cells were allowed 24 hours to attach and then were rinsed and fixed in buffered formalin. The cells were stained for 5 minutes with 0.01% aqueous crystal violet and the absorbance at 610 nm determined.

EC50 to support attachment of C3H10T1/2 cells (C3H10T1/2 cells [5]): about 8.7 μg/well
Substance: benzyl-(1,2 dimethyl)disilyl heparin [silyl-heparin]
C3H10T1/2 cell attachment on prolonged culture (C3H10T1/2 cells [1]; cells cultured for up to 4 days): no cell attachment was evident | effect of coating or treatment on C3H10T1/2 cell attachment (C3H10T1/2 cells [1]; regardless of the substrate): essentially eliminated cell attachment | C3H10T1/2 CELL ATTACHMENT (C3H10T1/2 cells [1]; surface: Stainless steel, determined by crystal violet staining): inhibition of cell attachment was noted | CELL ATTACHMENT [2]: did not attach | diameter or area of granulation tissue surrounding the suture [3]: tended to have a smaller area of granulation | capillary tube formation [4]: Tubes did not form | CELL ATTACHMENT (Jurkat (human T cell)): did not attach | CELL ATTACHMENT (rat lymphocytes): did not attach
